Results reported in publication PMC8997399, “High-Throughput Screening to Identify Inhibitors of Plasmodium falciparum Importin α” (Cells, 2022).
Where “and” joins values, the source holds several entries; their conditions need not be identical. Equal entries are not always repeated. Where two headings read alike, the source gives them in different places.

Columns and labels:
MmΔIBBIMPα = biological target: T1, MmΔIBBIMPα (Mus musculus, UniProt P52293); test: AlphaScreen binding assay, MmΔIBBIMPα:T-ag-NLS-GFP interaction
T1 construct: made in house
Procedure: (§1) PfIMPα, TgIMPα, Mus musculus IMPα (MmIMPα), ΔIBBMmIMPα, and β1 (MmIMPβ) GST fusion proteins were expressed and purified essentially as previously. His-tagged TGS1-NLS-GFP, PfIMPα and TgIMPα proteins were purified using Ni^2+-affinity chromatography as described. His-tagged SV40 T-ag-NLS-GFP was purified as previously. Biotinylation of GST-tagged proteins was carried out using the Sulfo-NHS-Biotin reagent (Pierce, Rockford, IL, USA) as described previously. AlphaScreen binding assay was performed as described previously.
(§2) Plates were read for an Alphascreen signal on an Envision plate reader (PerkinElmer, Waltham, MA, USA), with signals from the negative control wells (no bait control) on each plate subtracted.

PfIMPα [1] = biological target: T2, PfIMPα (Plasmodium falciparum, UniProt Q8IAW0); test: Thermostability assay (TSA), PfIMPα; assay type: binding
T2 sequence (Q8IAW0 entry or part of it): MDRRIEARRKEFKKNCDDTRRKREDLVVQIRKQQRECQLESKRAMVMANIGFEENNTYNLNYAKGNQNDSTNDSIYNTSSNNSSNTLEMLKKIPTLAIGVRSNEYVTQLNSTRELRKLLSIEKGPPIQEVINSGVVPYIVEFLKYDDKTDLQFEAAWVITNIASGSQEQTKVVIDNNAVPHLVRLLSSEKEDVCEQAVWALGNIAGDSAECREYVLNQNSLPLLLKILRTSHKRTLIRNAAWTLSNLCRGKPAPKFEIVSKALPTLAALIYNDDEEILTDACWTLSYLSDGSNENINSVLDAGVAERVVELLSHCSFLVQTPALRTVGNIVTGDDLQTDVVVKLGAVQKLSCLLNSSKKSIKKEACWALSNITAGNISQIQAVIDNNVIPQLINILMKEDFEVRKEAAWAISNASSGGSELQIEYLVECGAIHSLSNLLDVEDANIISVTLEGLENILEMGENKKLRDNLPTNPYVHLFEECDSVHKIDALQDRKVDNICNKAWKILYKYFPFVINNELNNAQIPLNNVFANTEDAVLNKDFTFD
Procedure: (§3) The effect of inhibitory compounds on IMPα thermostability was tested, as previously, using the fluorescent dye SYPRO Orange (Thermo Fisher Scientific, Waltham, MA, USA) and the Qiagen Rotor-Gene Q6 plex instrument programmed in the melt curve mode. Increasing concentrations of compound in 0.5 µL DMSO were added to 24.5 µL recombinant protein (2 µM) in phosphate-buffered saline (PBS). Next, 1 µL of SYPRO Orange dye was added, the reaction mixture heated at 0.5 °C/min from 27 °C to 90 °C, and the fluorescence intensity caused by the SYPRO Orange binding to the proteins monitored (excitation/emission: 530/555 nm). Tm is the temperature at which 50% of the protein is unfolded.

MmIMPα = biological target: T3, MmIMPα (Mus musculus, UniProt P52293); test: Thermostability assay (TSA), MmIMPα; assay type: binding
T3 construct: GST; made in house
Procedure: as §3

[2] = tested on: T. gondii RH strain expressing the luciferase reporter (RH-Fluc); test: T. gondii tachyzoite growth inhibition assay (RH-Fluc luciferase); assay type: cell-based, Toxoplasma gondii; details: for T. gondii parasite killing: at 2 µM or less (Figure 7); for IC50: read-out: IC50 T. gondii
Source text: T. gondii RH strain expressing the luciferase reporter (RH-Fluc) was derived to assess the effect of the inhibitors on growth. Briefly, plasmid pCTG-EGFP [42] was modified by replacing the coding sequence of EGFP with that of the firefly luciferase reporter, using restriction enzymes BglII and PstI (Thermo Fisher Scientific, Waltham, MA, USA). The resultant plasmid, pCTG-Fluc, expressing firefly luciferase constitutively under the control of the T. gondii TubulinA promoter, was electroporated into the T. gondii RH strain [43, 44] using a Bio-Rad GenePulser Xcell system (1500 V, 50 Ω and 25 µF) along with restriction enzyme NotI to initiate RE-Mediated Integration (REMI) of the linearized plasmid into the genome. The resultant stable T. gondii line expressing the luciferase reporter was selected for resistance to 20 µM chloramphenicol (encoded by the plasmid pCTG), and dilution cloning was performed to ultimately identify the clone (RH-Fluc) with the highest luciferase activity (c. 4 × 10^7 RLU from 10^7 parasites) used for growth assays. T. gondii tachyzoites were maintained and cultured at 37 °C in 5% CO2 in a humidified incubator in primary human foreskin fibroblasts (HFF, ATCC); HFF cells were maintained in Dulbecco’s modified Eagle medium (DMEM) (Gibco^TM, Waltham, MA, USA) supplemented with 3.7 g/L sodium bicarbonate and 2.38 g/L HEPES, 10% Cosmic Calf serum (Hyclone^TM, Logan, UT, USA) and 20 mg/L gentamicin [47, 48].
Growth inhibition was assessed by luminescence measurements as described. Briefly, 100 μL of culture medium with or without inhibitors was added to confluent monolayers of HFF cells grown in 96-well treated culture plates (Eppendorf, Hamburg, Germany), followed by 100 µL of DMEM containing 5000 parasites. After 48 h, 150 µL of the culture media was discarded from each well without aspirating any parasites, and 10 µL lysis buffer was added to lyse the parasites, followed by 50 μL of 2× luciferase assay reagent (Promega, Madison, WI, USA). Luminescence was measured directly for 10 s using a Varioskan™ LUX multimode microplate reader (Thermo Fisher Scientific, Waltham, MA, USA).

HFF cells = test: MTT assay for host cell cytotoxicity; assay type: cell-based, human
Procedure: The MTT assay was used to measure the cytotoxicity of the small molecules against the HFF cells as described. Briefly, freshly confluent HFF cells in a 96-well culture plate were treated with increasing concentrations of compounds for 48 h, prior to the MTT assay.

PfIMPα [3] = biological target: T2, PfIMPα; assay type: binding
MmIMPα/β heterodimer = biological target: T4, MmIMPα/β heterodimer (Mus musculus, UniProt P52293); test: AlphaScreen binding assay, MmIMPα/β:T-ag-NLS-GFP interaction; details: compounds at 10 μM, MmIMPα/β (5 nM):T-ag-NLS-GFP (30 nM), relative to 1% DMSO control
T4 construct: GST; made in house
Procedure: as §1, §2

T. gondii tachyzoites = details: cited from earlier work
P. falciparum = details: cited from earlier work
[4] = compounds at 10 μM, ΔIBBMmIMPα (5 nM):T-ag-NLS-GFP (30 nM), relative to 1% DMSO control
[5] = pooled, mean ± SEM (n = 3), read-out: IC50 MmΔIBBIMPα:T-ag-NLS
[6] = single experiment (Figure 3), IMPα 5 nM, NLS 30 nM, read-out: IC50 MmΔIBBIMPα:T-ag-NLS-GFP
[7] = concentrations higher than 20 µM
[8] = 10 μM, 48 h, HFF cells infected with RH-Fluc (Figure 5B)
[9] = parasites in culture, 48 h, pooled, mean ± SD (n = 3) (Table 3)
[10] = single typical experiment (Figure 7), 48 h
[11] = pooled, mean ± SEM (n = 3), read-out: IC50 PfIMPα:TGS1-NLS-GFP
[12] = concentrations of 75 µM or higher

CC(C)(C)c1ccc(S(=O)(=O)/C=C/C#N)cc1 [Bay 11-7085]
% Inhibition of IMPα-NLS Interaction MmΔIBBIMPα (MmΔIBBIMPα; [4]): 9% | IC50 (MmΔIBBIMPα; [5]): 23 µM and 23.4 µM | fold higher IC50 for ΔIBBMmIMPα-NLS compared to PfIMPα-TGS-NLS interaction (MmΔIBBIMPα; selectivity for PfIMPα): ~12 fold | IC50 (MmΔIBBIMPα; [6]): 31 µM | increase of stability of PfIMPα (PfIMPα [1]; [7]): 9–11 °C | thermostability of PfIMPα reached (PfIMPα [1]; [7]): 48–50 °C | reduction of stability of PfIMPα (PfIMPα [1]; concentrations up to 10 µM): 6 °C | thermostability of PfIMPα reached (PfIMPα [1]; concentrations up to 10 µM): 39 °C | MmIMPα stable only up to (MmIMPα; 10–20 µM): 30–36 °C | reduction of thermostability of MmIMPα (MmIMPα; 10–20 µM): 9–15 °C | reduction in luciferase activity, indicative of T. gondii growth inhibition [2, 8]: > 50% | T. gondii parasite killing [2]: ≥ 60% | IC50 [2, 9]: 2700 ± 700 nM | IC50 [2, 10]: 2000 nM | CC50 (HFF cells): 8.2 ± 0.7 µM | IC50 (PfIMPα [3]; [11]): 2000 nM and 1900 nM | fold lower IC50 for PfIMPα compared to both TgIMPα and MmIMPα (PfIMPα [3]; range over both comparisons): 12-16 fold

O=C(/C=C/c1ccc(O)c(O)c1)OCCc1ccccc1 [CAPE, Caffeic acid phenethyl ester]
inhibition at 10 µM (MmΔIBBIMPα; compounds at 10 μM, ΔIBBMmIMPα (5 nM):T-ag-NLS-GFP (30 nM), relative to 1% DMSO control, read-out: % Inhibition of IMPα-NLS Interaction MmΔIBBIMPα): 92% | IC50 (MmΔIBBIMPα; [5]): 0.7 ± 0.1 µM | inhibition at 10 µM (MmIMPα/β heterodimer; read-out: % Inhibition of IMPα-NLS Interaction MmIMPα/β): 14% | increase in thermostability of PfIMPα (PfIMPα [1]; [12]): 2 °C | thermostability of PfIMPα reached (PfIMPα [1]; [12]): 47 °C | change in stability of MmIMPα (MmIMPα; up to 100 µM): did not elicit any marked change in stability | inhibition at 10 µM ([2]; Toxoplasma gondii, 10 μM, 48 h, HFF cells infected with RH-Fluc (Figure 5B), read-out: reduction in luciferase activity, indicative of T. gondii growth inhibition): 5% | IC50 ([2]; Toxoplasma gondii, parasites in culture, 48 h, pooled, mean ± SD (n = 3) (Table 3)): > 10000 nM

CC(=O)OC[C@H]1O[C@@H]([S-])[C@H](OC(C)=O)[C@@H](OC(C)=O)[C@@H]1OC(C)=O.CCP(CC)CC.[Au+] [auranofin]
% Inhibition of IMPα-NLS Interaction MmΔIBBIMPα (MmΔIBBIMPα; [4]): 91% | IC50 (MmΔIBBIMPα; [5]): 0.06 ± 0.01 µM | IC50 (MmΔIBBIMPα; [6]): 0.05 µM | % Inhibition of IMPα-NLS Interaction MmIMPα/β (MmIMPα/β heterodimer): 100% | PfIMPα stable only up to (PfIMPα [1]; concentrations as low as 5 μM): 32–35 °C | reduction of thermostability of PfIMPα (PfIMPα [1]; concentrations as low as 5 μM): 12–15 °C | MmIMPα stable only up to (MmIMPα; concentrations as low as 5 μM): 32–35 °C | reduction of thermostability of MmIMPα (MmIMPα; concentrations as low as 5 μM): 12–15 °C | reduction in luciferase activity, indicative of T. gondii growth inhibition [2, 8]: > 50% | T. gondii parasite killing [2]: ≥ 60% | IC50 [2, 9]: 2300 ± 800 nM | IC50 [2, 10]: 1900 nM | CC50 (HFF cells; MTT assay, 48 h, mean ± SD (n = 2), read-out: CC50 HFF cells): 5.1 µM | cytotoxicity to HFF cells (HFF cells; at concentrations < c. 5 µM): essentially absent | IC50 (PfIMPα [3]; [11]): 70 ± 10 nM | IC50 (PfIMPα [3]; range over PfIMPα, TgIMPα and MmΔIBBIMPα interactions, read-out: IC50 values of all three IMPα:NLS interactions): 60 to 80 nM | IC50 (PfIMPα [3]; single experiment (Figure 3), IMPα 5 nM, NLS 30 nM, read-out: IC50 PfIMPα:TGS1-NLS-GFP): 80 nM | activity against cultured T. gondii (T. gondii tachyzoites): possess activity | activity against P. falciparum (P. falciparum): possess activity
